Data as given in patent US11155517B2, “4-substituted phenylamine derivatives and their use to protect crops by fighting undesired phytopathogenic micoorganisms” (PI INDUSTRIES LTD., priority 2016, dated 2021).

Tests used:
Format in all cases: cell-based
Colletotrichum capsici = Colletotrichum capsici (anthracnose) in vitro test, radial growth on Potato Dextrose Agar; details: Colletotrichum truncatum, 168 h; 300 ppm; seven days, 25° C.; read-out: % control compared to the untreated check (radial growth)
Botrytis cinerea = Botrytis cinerea (gray mold) in vitro test, radial growth on Potato Dextrose Agar; details: 168 h, 300 ppm, seven days, 22° C., read-out: % (control) compared to the untreated check (radial growth)
Rhizoctonia solani = Rhizoctonia solani (rice sheath blight/potato black scurf) in vitro test, radial growth on Potato Dextrose Agar; details: 168 h, 300 ppm, seven days, 25° C., read-out: % control compared to the untreated check (radial growth)
Pyricularia oryzae = experiment: microbe, parasite or virus in culture; details: 168 h, read-out: % control compared to the untreated check (radial growth)
Septoria lycopersici = Septoria lycopersici (leaf spot of tomato) in vitro test, radial growth on Potato Dextrose Agar; details: 168 h, seven days, 25° C., read-out: % control compared to the untreated check (radial growth)
Fusarium culmorum = Fusarium culmorum (foot rot of cereals) in vitro test, radial growth on Potato Dextrose Agar; details: Fusarium culmorum, 168 h, read-out: % control compared to the untreated check (radial growth)
Alternaria solani = Alternaria solani (early blight of tomato/potato) in vitro test, radial growth on Potato Dextrose Agar; details: 168 h, 300 ppm, seven days, 25° C., read-out: % control compared to the untreated check (radial growth)

Compound	inhibition of growth at 300 ppm (Colletotrichum capsici)	inhibition of growth at 300 ppm (Botrytis cinerea)	inhibition of growth at 300 ppm (Rhizoctonia solani)	inhibition of growth at 300 ppm (Pyricularia oryzae)	inhibition of growth at 300 ppm (Septoria lycopersici)	inhibition of growth at 300 ppm (Fusarium culmorum)	inhibition of growth at 300 ppm (Alternaria solani)
CCN(C)C=Nc1cc(C)c(Cc2ccc(Cl)c(C(F)(F)F)c2)cc1C [Compound 142, N′-(4-(4-chloro-3-(trifluoromethyl)benzyl)-2,5-dimethylphenyl)-N-ethyl-N-methylformimidamide]	> 80%	> 80%	> 80%	> 75%	> 70%	75%	> 75%
CCN(C)C=Nc1cc(C)c(Cc2cccc(OC)c2)cc1C [Compound 45, N-ethyl-N′-(4-(3-methoxybenzyl)-2,5-dimethylphenyl)-N-methylformimidamide]	> 80%	> 80%	> 80%	> 75%	> 70%	75%	> 75%
CCN(C)C=Nc1cc(C)c(Cc2cccc(OC(F)(F)F)c2)cc1F [Compound 206, N-ethyl-N′-(2-fluoro-5-methyl-4-(3-(trifluoromethoxy)benzyl)phenyl)-N-methylformimidamide]	> 80%	> 80%	> 80%	> 75%	> 70%	75%	> 75%
CCN(C)C=Nc1cc(C)c(Cc2ccc(C)c(F)c2)cc1C [Compound 144, N-ethyl-N′-(4-(3-fluoro-4-methylbenzyl)-2,5-dimethylphenyl)-N-methylformimidamide]	> 80%	> 80%	> 80%	> 75%	> 70%	75%	> 75%
CCN(C)C=Nc1cc(C(F)(F)F)c(Cc2ccc(C)cc2)cc1F [Compound 225, N-ethyl-N′-(2-fluoro-4-(4-methylbenzyl)-5-(trifluoromethyl)phenyl)-N-methylformimidamide]	> 80%	> 80%	> 80%	> 75%	> 70%	75%	> 75%
CCN(C)C=Nc1cc(C)c(Cc2ccccc2Br)cc1C [Compound 154, N′-(4-(2-bromobenzyl)-2,5-dimethylphenyl)-N-ethyl-N-methylformimidamide]	> 80%	> 80%	> 80%	> 75%	> 70%	75%	> 75%
CCN(C)C=Nc1cc(C)c(Cc2ccc(Cl)cc2Cl)cc1C [Compound 162, N′-(4-(2,4-dichlorobenzyl)-2,5-dimethylphenyl)-N-ethyl-N-methylformimidamide]	> 80%	> 80%	> 80%	> 75%	> 70%	75%	> 75%
CCN(C)C=Nc1cc(C)c(Cc2ccc(F)c(C)c2)cc1C [Compound 109, N-ethyl-N′-(4-(4-fluoro-3-methylbenzyl)-2,5-dimethylphenyl)-N-methylformimidamide]	> 80%	> 80%	> 80%	> 75%	> 70%	75%	> 75%
CCN(C)C=Nc1cc(C)c(Cc2cccc(Cl)c2)cc1F [Compound 208, N′-(4-(3-chlorobenzyl)-2-fluoro-5-methylphenyl)-N-ethyl-N-methylformimidamide]	> 80%	> 80%	> 80%	> 75%	> 70%	75%	> 75%
CCN(C)C=Nc1cc(Cl)c(Cc2ccccc2F)cc1C [Compound 256, N′-(5-chloro-4-(2-fluorobenzyl)-2-methylphenyl)-N-ethyl-N-methylformimidamide]	> 80%	> 80%	> 80%	> 75%	> 70%	75%	> 75%
CCN(C)C=Nc1cc(C)c(Cc2ccc(SC(F)(F)F)cc2)cc1C [Compound 92, N′-(2,5-dimethyl-4-(4-((trifluoromethyl)thio)benzyl)phenyl)-N-ethyl-N-methylformimidamide]	> 80%	> 80%	> 80%	> 75%	> 70%	75%	> 75%
CCN(C)C=Nc1cc(C)c(Cc2ccc(Cl)c(OC(F)(F)F)c2)cc1C [Compound 145, N′-(4-(4-chloro-3-(trifluoromethoxy)benzyl)-2,5-dimethylphenyl)-N-ethyl-N-methylformimidamide]	> 80%	> 80%	> 80%	> 75%	> 70%	75%	> 75%
CCN(C)C=Nc1cc(C#N)c(Cc2cccc(Cl)c2)cc1C [Compound 249, N′-(4-(3-chlorobenzyl)-5-cyano-2-methylphenyl)-N-ethyl-N-methylformimidamide]	> 80%	> 80%	> 80%	> 75%	> 70%	75%	> 75%
CCN(C)C=Nc1cc(C)c(Cc2ccc(C(F)(F)F)c(F)c2)cc1C [Compound 158, N-ethyl-N′-(4-(3-fluoro-4-(trifluoromethyl)benzyl)-2,5-dimethylphenyl)-N-methylformimidamide]	> 80%	> 80%	> 80%	> 75%	> 70%	75%	> 75%
CCN(C)C=Nc1cc(C)c(Cc2cc(F)cc(OC)c2)cc1Cl [Compound 169, N′-(2-chloro-4-(3-fluoro-5-methoxybenzyl)-5-methylphenyl)-N-ethyl-N-methylformimidamide]	> 80%	> 80%	> 80%	> 75%	> 70%	75%	> 75%
CCN(C)C=Nc1cc(C)c(Cc2cccc(F)c2)cc1F [Compound 209, N-ethyl-N′-(2-fluoro-4-(3-fluorobenzyl)-5-methylphenyl)-N-methylformimidamide]	> 80%	> 80%	> 80%	> 75%	> 70%	75%	> 75%
